Laboratory results from US20200291018A1, “TAM KINASE INHIBITORS” (SYROS PHARMACEUTICALS, INC., priority 2017, published 2020).

Legend:
[1] = target: T1, MERTK (Homo sapiens, UniProt Q12866); assay: TR-FRET kinase activity assay, MERTK; assay type: biochemical; conditions: for IC50: TR-FRET activity assay, ATP at Km, 60 minutes, read-out: Mer IC50; for Mer/Flt3 ratio (FLT3 IC50/Mer IC50): ratio calculated as FLT3 IC50/Mer IC50
T1 sequence (Q12866 21-999): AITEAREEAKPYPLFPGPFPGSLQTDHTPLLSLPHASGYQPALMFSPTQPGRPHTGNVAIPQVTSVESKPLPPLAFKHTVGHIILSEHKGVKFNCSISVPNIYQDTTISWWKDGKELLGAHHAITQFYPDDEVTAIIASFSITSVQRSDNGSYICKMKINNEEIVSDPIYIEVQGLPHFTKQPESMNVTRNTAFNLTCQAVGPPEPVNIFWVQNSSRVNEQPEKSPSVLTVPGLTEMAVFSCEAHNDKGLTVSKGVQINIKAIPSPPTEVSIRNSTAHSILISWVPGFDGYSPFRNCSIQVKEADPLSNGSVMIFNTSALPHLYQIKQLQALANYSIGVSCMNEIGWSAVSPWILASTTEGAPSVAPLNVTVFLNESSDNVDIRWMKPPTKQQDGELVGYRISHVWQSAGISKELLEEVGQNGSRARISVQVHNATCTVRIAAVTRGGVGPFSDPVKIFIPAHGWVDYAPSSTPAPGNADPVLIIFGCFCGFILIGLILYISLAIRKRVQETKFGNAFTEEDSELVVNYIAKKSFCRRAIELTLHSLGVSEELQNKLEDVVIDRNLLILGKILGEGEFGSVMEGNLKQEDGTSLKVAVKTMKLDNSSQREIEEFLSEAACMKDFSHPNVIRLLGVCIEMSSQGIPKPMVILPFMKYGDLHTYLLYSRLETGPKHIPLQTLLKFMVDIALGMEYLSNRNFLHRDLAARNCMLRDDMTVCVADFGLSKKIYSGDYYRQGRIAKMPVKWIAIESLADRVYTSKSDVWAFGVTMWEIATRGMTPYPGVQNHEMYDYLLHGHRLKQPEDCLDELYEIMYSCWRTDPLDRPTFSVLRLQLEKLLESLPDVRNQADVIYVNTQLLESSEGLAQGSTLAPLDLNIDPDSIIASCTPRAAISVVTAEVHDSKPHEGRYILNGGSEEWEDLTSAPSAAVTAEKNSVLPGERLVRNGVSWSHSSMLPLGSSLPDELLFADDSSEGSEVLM
Outline: (§1)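 TR-FRET signal from Eu-labeled phospho-site antibody bound to tyrosine-phosphorylated fluorescent peptide; inhibition lowers signal, giving IC50. Reactions: 50 mM HEPES pH 7.5, 10 mM MgCl2, 1 mM EGTA, 0.01% Brij 35, 1 mM DTT, ATP at Km per enzyme, 60 min, RT.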

[2] = target: T2, AXL (Homo sapiens, UniProt P30530); assay: TR-FRET kinase activity assay, AXL; assay type: biochemical; conditions: ATP at Km, 60 minutes
T2 sequence (P30530 26-894): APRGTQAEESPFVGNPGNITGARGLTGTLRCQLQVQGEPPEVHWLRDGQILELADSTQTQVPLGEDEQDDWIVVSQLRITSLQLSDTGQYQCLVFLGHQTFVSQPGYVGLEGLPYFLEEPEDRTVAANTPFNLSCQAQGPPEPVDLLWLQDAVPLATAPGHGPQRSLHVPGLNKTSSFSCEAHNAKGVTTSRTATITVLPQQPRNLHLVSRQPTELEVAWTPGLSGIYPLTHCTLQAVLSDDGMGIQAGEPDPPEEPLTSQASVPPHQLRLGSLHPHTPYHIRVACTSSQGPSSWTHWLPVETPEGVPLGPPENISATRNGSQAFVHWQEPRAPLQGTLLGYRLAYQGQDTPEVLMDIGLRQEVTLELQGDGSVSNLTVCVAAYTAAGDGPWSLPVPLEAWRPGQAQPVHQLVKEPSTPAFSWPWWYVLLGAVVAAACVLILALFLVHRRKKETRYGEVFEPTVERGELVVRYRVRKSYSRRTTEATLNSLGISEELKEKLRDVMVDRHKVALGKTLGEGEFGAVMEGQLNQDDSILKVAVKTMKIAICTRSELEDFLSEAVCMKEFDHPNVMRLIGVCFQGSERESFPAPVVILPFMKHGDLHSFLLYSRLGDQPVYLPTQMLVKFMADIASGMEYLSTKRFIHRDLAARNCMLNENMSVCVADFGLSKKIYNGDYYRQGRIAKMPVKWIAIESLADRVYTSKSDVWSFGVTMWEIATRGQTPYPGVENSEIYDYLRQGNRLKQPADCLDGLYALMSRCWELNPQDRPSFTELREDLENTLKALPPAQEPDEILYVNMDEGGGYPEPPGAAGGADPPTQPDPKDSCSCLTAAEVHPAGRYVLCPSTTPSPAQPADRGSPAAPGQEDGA
Outline: as §1

IC50 [1] | Mer/Flt3 ratio (FLT3 IC50/Mer IC50) [1] | IC50 [2] | Structure (SMILES)
≤ 100 nM | +++ (a ratio of >100) | 1000 to 10000 nM | CCC(CC)Nc1ncc2c(=O)n(C3CCNCC3)cc([C@H]3CC[C@H](O)CC3)c2n1 [Compound 120]
≤ 100 nM | +++ (a ratio of >100) | 100 to 1000 nM | COC[C@H](C)Nc1ncc2c(OC3CCOCC3)ncc([C@H]3CC[C@H](O)CC3)c2n1 [Compound 122, (1S,4r)-4-(2-(((S)-1-methoxypropan-2-yl)amino)-5-((tetrahydro-2H-pyran-4-yl)oxy)pyrido[4,3-d]pyrimidin-8-yl)cyclohexan-1-ol]
≤ 100 nM | +++ (a ratio of >100) | 100 to 1000 nM | CCC[C@H](C)Nc1ncc2c(=O)n(C3CCNCC3)cc([C@H]3CC[C@H](O)CC3)c2n1 [Compound 126]
≤ 100 nM | +++ (a ratio of >100) | 100 to 1000 nM | Cc1ncc([C@H]2CC[C@H](O)CC2)c2nc(N[C@@H](C)CC(F)(F)F)ncc12 [Compound 356]
≤ 100 nM | ++ (a ratio of between 10 and 100) | 1000 to 10000 nM | COC[C@H](C)Nc1ncc2c(OC3CCOCC3)ncc(C3CCC(F)(F)CC3)c2n1 [Compound 358]
≤ 100 nM | +++ (a ratio of >100) | 1000 to 10000 nM | COC[C@H](C)Nc1ncc2c(OC3CC(C)(C)N(C(C)=O)C(C)(C)C3)ncc([C@H]3CC[C@H](O)CC3)c2n1 [Compound 361]
≤ 100 nM | +++ (a ratio of >100) | 1000 to 10000 nM | COC[C@H](C)Nc1ncc2c(Nc3cccnc3)ncc([C@H]3CC[C@H](O)CC3)c2n1 [Compound 363]
≤ 100 nM | +++ (a ratio of >100) | 100 to 1000 nM | C[C@H](Nc1ncc2c(OC3CCOCC3)ncc([C@H]3CC[C@H](O)CC3)c2n1)C(F)F [Compound 365]
≤ 100 nM | +++ (a ratio of >100) | 1000 to 10000 nM | COC[C@H](C)Nc1ncc2c(O[C@@H]3CCN(C)C3)ncc([C@H]3CC[C@H](O)CC3)c2n1 [Compound 366]
≤ 100 nM | +++ (a ratio of >100) | ≤ 100 nM | CC[C@@H](C)Nc1ncc2c(OC3CC(C)(C)N(C)C(C)(C)C3)ncc([C@H]3CC[C@H](O)CC3)c2n1 [Compound 367]
≤ 100 nM | +++ (a ratio of >100) | 1000 to 10000 nM | COC[C@H](C)Nc1ncc2c(O[C@H]3CCN(C)C3)ncc([C@H]3CC[C@H](O)CC3)c2n1 [Compound 368]
≤ 100 nM | +++ (a ratio of >100) | 1000 to 10000 nM | COC[C@H](C)Nc1ncc2c(Nc3ccc(C)nc3)ncc([C@H]3CC[C@H](O)CC3)c2n1 [Compound 374]
≤ 100 nM | +++ (a ratio of >100) | 1000 to 10000 nM | COCC(=O)N1C(C)(C)CC(Oc2ncc([C@H]3CC[C@H](O)CC3)c3nc(N[C@@H](C)CC(F)(F)F)ncc23)CC1(C)C [Compound 377]
≤ 100 nM | +++ (a ratio of >100) | 100 to 1000 nM | C[C@@H](CC(F)(F)F)Nc1ncc2c(OC3CCN([C@@H]4CCOC4)CC3)ncc([C@H]3CC[C@H](O)CC3)c2n1 [Compound 378]

Continued, molecule first:

Structure (SMILES) | IC50 [1] | Mer/Flt3 ratio (FLT3 IC50/Mer IC50) [1] | IC50 [2]
CCCCNc1ncc2c(NC3CCOCC3)ncc([C@H]3CC[C@H](O)CC3)c2n1 [Compound 124] | ≤ 100 nM | + (a ratio of >2.0 and <10) | ≤ 100 nM
CCCCNc1ncc2c(OCCOC)ncc([C@H]3CC[C@H](O)CC3)c2n1 [Compound 125] | ≤ 100 nM | NS (a ratio of ≤2.0) | 100 to 1000 nM
COCCN1C(C)(C)CC(Oc2ncc([C@H]3CC[C@H](O)CC3)c3nc(N[C@@H](C)CC(F)(F)F)ncc23)CC1(C)C [Compound 355] | ≤ 100 nM | +++ (a ratio of >100) | ≤ 100 nM
COC[C@H](C)Nc1ncc2c(O[C@H]3CCOC3)ncc([C@H]3CC[C@H](O)CC3)c2n1 [Compound 357] | ≤ 100 nM | +++ (a ratio of >100) | 1000 to 10000 nM
CCOc1ncc([C@H]2CC[C@H](O)CC2)c2nc(N[C@@H](C)CC(F)(F)F)ncc12 [Compound 359] | ≤ 100 nM | +++ (a ratio of >100) | 100 to 1000 nM
C[C@@H](CC(F)(F)F)Nc1ncc2c(O[C@H]3C[C@@H](O)C3)ncc([C@H]3CC[C@H](O)CC3)c2n1 [Compound 360] | ≤ 100 nM | +++ (a ratio of >100) | 100 to 1000 nM
COC[C@H](C)Nc1ncc2c(Nc3ccncc3)ncc([C@H]3CC[C@H](O)CC3)c2n1 [Compound 362] | ≤ 100 nM | +++ (a ratio of >100) | 1000 to 10000 nM
C[C@@H](CC(F)(F)F)Nc1ncc2c(O[C@H]3C[C@H](O)C3)ncc([C@H]3CC[C@H](O)CC3)c2n1 [Compound 364] | ≤ 100 nM | +++ (a ratio of >100) | 100 to 1000 nM
COCCN1CCC(Oc2ncc([C@H]3CC[C@H](O)CC3)c3nc(N[C@@H](C)CC(F)(F)F)ncc23)CC1 [Compound 369] | ≤ 100 nM | +++ (a ratio of >100) | 100 to 1000 nM
C[C@@H](CC(F)(F)F)Nc1ncc2c(OC3C[C@H]4CC[C@@H](C3)N4C)ncc([C@H]3CC[C@H](O)CC3)c2n1 (stereo partly drawn) [Compound 370] | ≤ 100 nM | +++ (a ratio of >100) | ≤ 100 nM
COC[C@H](C)Nc1ncc2c(OC3C[C@@H](C)N(C)[C@@H](C)C3)ncc([C@H]3CC[C@H](O)CC3)c2n1 (stereo partly drawn) [Compound 371] | ≤ 100 nM | +++ (a ratio of >100) | 100 to 1000 nM
COC[C@H](C)Nc1ncc2c(Nc3ccnc(C)c3)ncc([C@H]3CC[C@H](O)CC3)c2n1 [Compound 372] | ≤ 100 nM | +++ (a ratio of >100) | 1000 to 10000 nM
C[C@@H](CC(F)(F)F)Nc1ncc2c(OC3CCN(c4ncccn4)CC3)ncc([C@H]3CC[C@H](O)CC3)c2n1 [Compound 373] | ≤ 100 nM | +++ (a ratio of >100) | 100 to 1000 nM
Cc1nccc(N2CCC(Oc3ncc([C@H]4CC[C@H](O)CC4)c4nc(N[C@@H](C)CC(F)(F)F)ncc34)CC2)n1 [Compound 375] | ≤ 100 nM | +++ (a ratio of >100) | 100 to 1000 nM
COCCN1C(C)(C)CC(Oc2ncc([C@H]3CC[C@H](O)CC3)c3nc(N[C@@H](C)CC#N)ncc23)CC1(C)C [Compound 376] | ≤ 100 nM | +++ (a ratio of >100) | 100 to 1000 nM
COCCN1C(C)(C)CC(Oc2ncc([C@H]3CC[C@H](O)CC3)c3nc(NC4(C)CC4)ncc23)CC1(C)C [Compound 379] | ≤ 100 nM | +++ (a ratio of >100) | ≤ 100 nM
